Results reported in patent US10065988B2, “Peptoid affinity ligands” (Stefano Menegatti, priority 2013, dated 2018).
*1 amine or outer side, *2 acyl side, *3 side chain or, on linkers, in order; H or OH if unused. Where a SMILES comes first, the peptide text is derived from it. [ ]: non-standard residue; d: D form. Gly(N(CH2)2(3-indolyl)) = O=C(O)CNCCc1c[nH]c2ccccc12; Gly(N-(CH2)3-guanidino) = N=C(N)NCCCNCC(=O)O; X1 = O=C(CN(CCc1ncc[nH]1)[*:1])[*:2]; Gly(N(CH2)3NH2) = NCCCNCC(=O)O; N(iPr)Gly = CC(C)NCC(=O)O

System: human IgG (hIgG)
Assay: Batch mode IgG binding to peptoid-functionalized Toyopearl AF-amino 650 M resin
Settings: polyclonal hIgG 0.5 mg/mL in PBS, 2 mg hIgG per mL resin, 45 min at 22° C., elution 0.1 M glycine pH 2.5, ELISA and SDS-PAGE (FIG. 1, FIG. 2)
Source text: FIG. 1. Batch mode IgG adsorption to Toyopearl AF-amino 650 M resins functionalized with different peptoid ligands. IgG in the flow-through fractions (black) indicate the percent hIgG that was not adsorbed to the resin relative to the mass of hIgG loaded. The elution fractions (grey) indicate the percent of human IgG that was bound in phosphate buffered saline (PBS) and eluted (0.1 M glycine, pH 2.5) relative to the initial concentration of IgG that was loaded. Concentrations of hIgG in all fractions were determined by ELISA. The unmodified resin served as the negative control. Binding trials were done in duplicate for each resin.
FIG. 2. Reducing SDS-PAGE analysis of elution and flow-through fractions from hIgG adsorption experiments. Lanes designated “FT” and “Elute” are the flow-through and elution fractions, respectively. The lane marked “hIgG loaded” is the pre-adsorbed hIgG solution that was incubated with each resin tested. The heavy and light chains of hIgG migrate at ˜55 and ˜25 kDa, respectively, on reducing SDS-PAGE gels.
IgG Binding to Resin: The ability of the peptoid affinity ligands to bind human IgG (hIgG) was tested in batch mode. A 50% slurry of the resin was prepared, of which 200 μl (˜100 mg resin) was transferred into the spin column. The resin was throughly washed with dH2O and equilibrated with PBS prior to hIgG exposure. Polyclonal hIgG (Equitech-Bio) was diluted to 0.5 mg/mL with PBS. After equilibration, a 0.5 mg/mL solution of hIgG was added to the resin to achieve a ratio of 2 mg hIgG per mL of resin, and allowed to incubate for 45 min at 22° C. with vigorous shaking. After incubation, the resin was centrifuged at 500×g for 2 min in which the filtrate of this step was collected and labeled as “flow-through” fraction. The resin was subsequently washed 2× with PBS. Elution buffer (0.1 M glycine, pH 2.5) was added to the resin and mixed vigorously for 10 min at 22° C. After centrifugation (500×g for 2 min) bound hIgG was eluted from the resin and collected in the filtrate. The amount of hIgG found in the flow-through and elution fraction was determined using an ELISA-based quantitative assay (Bethyl, Cat. No. E80-104). hIgG yields were determined as the ratio of hIgG mass in the elution fraction and hIgG mass in the loading solution (FIG. 1). SDS-PAGE analysis of all collected fractions was carried out to determine product purity and evaluate the ligand selectivity (FIG. 2).

## CC(C)N(CC(=O)O)C(=O)CN(CCc1c[nH]c2ccccc12)C(=O)CNC(=O)CN(CCCNC(=N)N)C(=O)CN(CCc1c[nH]c2ccccc12)C(=O)CNCCc1ncc[nH]1 [Ligand G001] (H-[X1][Gly(N(CH2)2(3-indolyl))][Gly(N-(CH2)3-guanidino)]G[Gly(N(CH2)2(3-indolyl))][N(iPr)Gly]-OH)
  ability of the peptoid affinity ligands to bind human IgG (hIgG) to the resin: useful for binding IgG to the resin

## CC(C)N(CC(=O)O)C(=O)CN(CCc1c[nH]c2ccccc12)C(=O)CNC(=O)CN(CCCN)C(=O)CN(CCc1c[nH]c2ccccc12)C(=O)CNCCc1ncc[nH]1 [Ligand G012] (H-[X1][Gly(N(CH2)2(3-indolyl))][Gly(N(CH2)3NH2)]G[Gly(N(CH2)2(3-indolyl))][N(iPr)Gly]-OH)
  ability of the peptoid affinity ligands to bind human IgG (hIgG) to the resin: useful for binding IgG to the resin

## N=C(N)NCCCN(CC(=O)NCC(=O)O)C(=O)CN(CCc1c[nH]c2ccccc12)C(=O)CNCCc1ncc[nH]1 [Ligand G003]
  ability of the peptoid affinity ligands to bind human IgG (hIgG) to the resin: useful for binding IgG to the resin

## N=C(N)NCCCN(CC(=O)O)C(=O)CN(CCc1c[nH]c2ccccc12)C(=O)CNCCc1ncc[nH]1 [Ligand G005]
  ability of the peptoid affinity ligands to bind human IgG (hIgG) to the resin: useful for binding IgG to the resin
